Test results: US11260072B2, “MicroRNA-based methods and assays for osteocarcinoma” (3-D Matrix, Ltd., priority 2011, dated 2022)
Entries after “also recorded” stand apart in the source; their conditions may differ.

Columns and labels:
[1] = test system: CD133^low HOS cells; assay: miR-133a expression in cisplatin-treated CD133low HOS cells; assay type: cell-based, human
Excerpt: (§1) RNA isolation and quantitative real-time RT-PCR of mRNAs and miRNAs. Total RNA was purified from cells and tumor tissues with an RNeasy Mini Kit and RNase-Free DNase Set (QIAGEN). For quantitative polymerase chain reaction (qPCR) of mRNAs, cDNA was synthesized using High-Capacity cDNA Reverse Transcription Kit (Applied Biosystems). For each qPCR reaction, equal amounts of cDNA were mixed with Platinum SYBER Green qPCR SuperMix (Invitrogen) and specific primers (Table 1). Gene expression levels were normalized by beta actin (ACTB) or glyceraldehyde 3-phosphate dehydrogenase (GAPDH). For qPCR of miRNAs, miRNA was converted to cDNA using the TaqMan MicroRNA Reverse Transcription Kit (Applied Biosystems). RNU6B small nuclear RNA was amplified as an internal control. qPCR was performed using each miRNA-specific probe included with the TaqMan MicroRNA Assay on a Real-Time PCR System 7300 and SDS software (Applied Biosystems).

[2] = test system: 143B cells; assay: qRT-PCR of miRNAs and CD133 mRNA in drug-treated 143B cells; assay type: cell-based, human; conditions: for CD133 mRNA expression: 143B cells
Excerpt: as §1
In addition, the expression of miR-133a was enhanced by cisplatin in CD133^low HOS cells. […] CDDP-treated CD133^low HOS cells could form tumors with as few as 100 cells per injection, whereas the untreated CD133^low HOS cells could not (FIG. 23 and Table 9). […] Therefore, we reasoned that silencing of miR-133a before or during chemotherapy would prevent the increase of the expression of miR-133a, which enhanced TIC phenotypes and was induced by chemotherapeutics.

[3] = test system: 143B-luc; assay: spontaneous lung metastasis model of osteosarcoma (143B-luc implanted orthotopically into tibia); assay type: in vivo, athymic nude mice; conditions: for Luminescence of lung (mean): IVIS bioluminescence; for Lung metastasis (mice with metastasis / mice in group): day 35; for Tumor weight (mean): day 36, CDDP i.p.
Experimental: (§2) Tumor transplantation experiments. Animal experiments were performed in compliance with the guidelines of the Institute for Laboratory Animal Research, National Cancer Center Research Institute. Athymic nude mice or NOD/SCID mice (CLEA Japan) were purchased at 4 weeks of age and given at least 1 week to adapt to their new environment prior to tumor transplantation. On day 0, mice were anesthetized with 3% isoflurane and the right leg disinfected with 70% ethanol. Cells were aspirated into a 1 mL tuberculin syringe fitted with a 27-G needle. The needle was inserted through the cortex of the anterior tuberosity of the tibia with a rotating movement to avoid cortical fracture. Once the bone was traversed, the needle was inserted further to fracture the posterior cortex of the tibia. A 100 μL volume of solution containing freshly isolated CD133^high and CD133^low HOS-Luc (10^2, 10^3, 10^4, 10^5 cells per site) or 143B-Luc (1.5×10^6) was injected while slowly moving back the needle.
(§3) Monitoring tumor growth, lung metastasis, and toxicity with/without LAN-anti-miR-133a. For the assessment of tumorigenicity between CD133^high and CD133^low HOS-Luc cells, NOD/SCID mice were injected with D-luciferin (150 mg/kg, Promega) by intraperitoneal injection. Ten minutes later, photons from firefly luciferase were counted using the IVIS imaging system (Xenogen Corp.) according to the manufacturer's instructions. Each experimental condition included 5 animals per group and monitoring once a week. For the evaluation of LNA-anti-miR-133a administration into spontaneous lung metastasis of osteosarcoma model mice, individual mice were injected with 10 mg/kg of LNA-anti-miR-133a or saline via the tail vain. LNA were injected on following days 4, 11, 18, 25, 32 postinoculation of 143B-Luc cells. Each experimental condition included 10 animals per group. The development of subsequent lung metastasis was monitored once a week in vivo by the bioluminescent imaging described above for 5 weeks. All data were analyzed using LivingImage software (version 2.50, Xenogen). On day 36, the primary tumor and lung in 5 mice of each group were resected at necropsy for their weight, bioluminescent, and histological analyses. The blood examination, weight of whole body as well as heart, liver, and skeletal muscle, and histopathological examination were performed for the assessment of toxicity.
To extend the in vitro findings and to determine whether silencing of miR-133a could be an effective therapeutic option for osteosarcoma treatment, the effect of LNA-133a on a spontaneous lung metastasis model of osteosarcoma was examined. Experimentally, 1.5×10^6 cells of 143B transfected with firefly luciferase gene (143B-luc) were implanted orthotopically into the right proximal tibia of athymic nude mice. The implanted tumor growth and the presence of distant metastases were analyzed weekly for luciferase bioluminescence using an in vivo imaging system (IVIS). […] To assess the efficacy of the new treatment protocol, results were compared with three control groups (n=10 each): a saline control group, an LNA group, and a CDDP group. At 5 weeks, half the mice in each group were euthanized for further analysis; the remaining mice were monitored for survival.

[4] = test system: CD133^low HOS-luc cells; assay: tumorigenicity of CDDP-treated CD133low HOS-luc cells in mice; assay type: in vivo
Experimental: as §2, with “A 100 μL volume of solution containing freshly isolated CD133^high and CD133^low HOS-Luc (10^2, 10^3, 10^4, 10^5 cells per site) or 143B-Luc (1.5×10^6) was injected while slowly moving back the needle.” left out
(§4) Monitoring tumor growth, lung metastasis, and toxicity with/without LAN-anti-miR-133a. […] Ten minutes later, photons from firefly luciferase were counted using the IVIS imaging system (Xenogen Corp.) according to the manufacturer's instructions. […] The development of subsequent lung metastasis was monitored once a week in vivo by the bioluminescent imaging described above for 5 weeks. All data were analyzed using LivingImage software (version 2.50, Xenogen). […]

[5] = test system: miR-1; assay: knock-down of miR-1 in LNA-transfected CD133high SaOS2 cells; assay type: cell-based, human
Excerpt: as §1
(§5) Transfection with synthetic miRNAs, LNAs, and siRNAs. […]

[6] = test system: miR-10b; assay: knock-down of miR-10b in LNA-transfected CD133high SaOS2 cells; assay type: cell-based, human
Excerpt: as §1, §5

[7] = test system: CD133^high cells; assay: cytotoxicity assay (drug sensitivity) after LNA transfection; assay type: cell-based, human; conditions: DOX 0.4 μM or CDDP 5 μM, 48 h, 24 h after transfection
Experimental: Cell proliferation and cytotoxity assay. Cell proliferation rates and cell viability as an indicator for the relative sensitivity of the cells to doxorubicin, cisplatin, and methotrexate were determined using TetraColor ONE Cell proliferation Assay System (Seikagaku) according to the manufacturer's instructions. […] Triplicate wells were used for each treatment group. Absorbance was measured at 450 nm with a reference wavelength at 650 nm on EnVision (Wallac). The relative number of viable cells was expressed as the percent of cell viability.
(§6) Transfection with synthetic miRNAs, LNAs, and siRNAs. Synthetic hsa-miRs (Pre-miR-hsa-miR-1, -10b, -133a, and negative control (NC; Applied Biosystems, Table 2) and locked nucleic acids (LNAs) (LNA-1, -10b, -133a, and negative control, Exiqon, Table 3) were transfected into each type of cells at 30 nM each (final concentration) using DharmaFECT 1(GE Healthcare). Synthetic siRNAs (Bonac corporation, Table 4) were transfected into each type of cells at 100 nM each (final concentration) using DharmaFECT 1 (GE Healthcare). After 24 hours of incubation, cells were treated with chemotherapeutic agents for cytotoxicity assay or reseeded into invasion chambers for invasion assay.

[8] = test system: miR-133a; assay: miR-133a expression in 143B-luc tumors (qRT-PCR); assay type: in vivo, human; conditions: vs saline-treated mice
Excerpt: as §1, with “RNU6B small nuclear RNA was amplified as an internal control. qPCR was performed using each miRNA-specific probe included with the TaqMan MicroRNA Assay on a Real-Time PCR System 7300 and SDS software (Applied Biosystems).” left out
To extend the in vitro findings and to determine whether silencing of miR-133a could be an effective therapeutic option for osteosarcoma treatment, the effect of LNA-133a on a spontaneous lung metastasis model of osteosarcoma was examined. […] The implanted tumor growth and the presence of distant metastases were analyzed weekly for luciferase bioluminescence using an in vivo imaging system (IVIS). […] At 5 weeks, half the mice in each group were euthanized for further analysis; the remaining mice were monitored for survival.

[9] = test system: CD133^high cells; assay: apoptotic cell count (Hoechst staining) after LNA transfection; assay type: cell-based, human; conditions: compared to control CD133high cells; CDDP 5 μM, 48 h
[10] = test system: miR-133a; assay: silencing of miR-133a in LNA-transfected CD133high cells (real-time RT-PCR); assay type: cell-based, human; conditions: CD133high SaOS2 and HOS cells, LNA 30 nM
Excerpt: as §1, §5

[11] = test system: SGMS2; assay: SGMS2 mRNA in 143B-luc tumors of LNA-133a-treated mice; assay type: in vivo, human
Excerpt: as §1, §4

[12] = assessment of toxicity in LNA-treated tumor-bearing mice; assay type: in vivo; conditions: during the observation period
Experimental: as §3

[13] = test system: CD133^high SaOS2 and HOS cells; assay: cell proliferation after LNA transfection; assay type: cell-based, human; conditions: day 4 after transfection
Experimental: Cell proliferation and cytotoxity assay. Cell proliferation rates and cell viability as an indicator for the relative sensitivity of the cells to doxorubicin, cisplatin, and methotrexate were determined using TetraColor ONE Cell proliferation Assay System (Seikagaku) according to the manufacturer's instructions. Cells growing in the logarithmic phase were seeded in 96-well plates (5×10^3/well), allowed to attach overnight, and then were treated with varying doses of doxorubicin (Sigma), cisplatin (Alexis), and methotrexate (Sigma) for 72 h. Triplicate wells were used for each treatment group. Absorbance was measured at 450 nm with a reference wavelength at 650 nm on EnVision (Wallac). The relative number of viable cells was expressed as the percent of cell viability.
as §5

[14] = test system: CD133^high cells; assay: qPCR of genes associated with stemness, drug resistance and metastasis after LNA transfection; assay type: cell-based, human; conditions: β-actin internal control
Excerpt: as §1, §5

[15] = test system: CD133^high SaOS2 and HOS populations; assay: invasion assay after LNA transfection; assay type: cell-based, human
Experimental: Invasion assay. Invasion assays were performed by using 24-well BD BioCoat Invasion Chambers with Matrigel (Becton-Dickinson). 1×10^5 cells, suspended in 500 μL DMEM or RPMI 1640 medium without FBS, were added to the upper chamber, and DMEM or RPMI 1640 medium with 10% FBS was added to the lower chamber. After incubation for 24 h or 36 h, the cells on the upper surface of the filter were completely removed by wiping them with cotton swabs. The filters were fixed in methanol and stained with 1% toluidine blue in 1% sodium tetraborate (Sysmex). Filters were then mounted onto slides, and cells on lower surfaces were counted. Each assay was performed in triplicate.
as §6

## N.N.[Cl][Pt][Cl] [CDDP, cis-diamtninedichloroplatinum (II)]
[1]
  expression of miR-133a: enhanced
[2]
  CD133 mRNA expression: induction
[2]; listed as cisplatin
  CD133 mRNA expression: induced
[2]; 3 days treatment, relative to untreated 143B cells
  expression of miR-1, miR-10b, and miR-133a: increased level
[3]
  Luminescence of lung (mean): 2855
  Lung metastasis (mice with metastasis / mice in group): 8/10
[3]; compared to the other groups, LNA-133a 10 mg kg-1 i.v., CDDP 2 mg kg-1 i.p.
  tumor growth: No significant differences in tumor growth
[3]; LNA-133a 10 mg kg-1 i.v.
  Tumor weight (mean): 3.957 g
[4]; 100 cells per injection, cells treated with CDDP
  Tumor Incidence: 5/5
[4]; mouse, in vivo
  in vivo tumorigenicity of CD133low HOS population: increased in vivo tumorigenicity

## LNA-1: locked nucleic acid antisense to hsa-miR-1-2, 5′-ACATACTTCTTTACATTCCA-3′ (Exiqon) (LNA-modified (Exiqon), pattern not given here)
[5]
  miR-1 expression: knock-down

## LNA-10b: locked nucleic acid antisense to hsa-miR-10b, 5′-ACAAATTCGGTTCTACAGGGT-3′ (Exiqon) (LNA-modified (Exiqon), pattern not given here)
[6]
  miR-10b expression: knock-down

## LNA-133a: locked nucleic acid antisense to hsa-miR-133a-1, 5′-CAGCTGGTTGAAGGGGACCAA-3′ (Exiqon) (LNA-modified oligonucleotide from Exiqon, pattern not given here)
[7]
  sensitivity to DOX and CDDP (cell viability): enhanced sensitivity to DOX and CDDP
[8]
  expression of miR-133a of tumors: reduced miR-133a levels; also recorded: decreased
[3]
  Luminescence of lung (mean): 1744
  Lung metastasis (mice with metastasis / mice in group): 7/10
[3]; LNA-133a 10 mg kg-1 i.v.
  Tumor weight (mean): 3.143 g
[9]
  apoptotic cell death rate: significantly higher apoptotic cell death rate
[10]
  efficacy for the silencing of miR-133a: confirmed; also recorded: knock-down
[11]
  expression of mRNA for SGMS2: increased expression
[12]
  toxic effects on various tissue including heart, liver, and skeletal muscle: minimal toxic effects
[13]
  proliferation rate: suppressed in proliferation rate to the same level of CD133^low cells transfected with LNA-NC
[14]
  expression of the molecules associated with CD133high phenotypes: decreased
[15]
  invasiveness: decreased the invasiveness
